Columns and labels:
[1] = test system: human peripheral blood mononuclear cells (PBMC); experiment: PBMC cytotoxicity assay (CellTiter-Glo); format: cell-based; conditions: 2 days, pCC50
Description: (§1) Compounds of the present invention were tested via high-throughput cellular assays utilizing detection of kynurenine via mass spectrometry and cytotoxicity as end-points. For the mass spectrometry and cytotoxicity assays, human peripheral blood mononuclear cells (PBMC) (PB003F; AllCells®, Alameda, Calif.) were stimulated with human interferon-γ (IFN-γ) (Sigma-Aldrich Corporation, St. Louis, Mo.) and lipopolysaccharide from Salmonella minnesota (LPS) (Invivogen, San Diego, Calif.) to induce the expression of indoleamine 2, 3-dioxygenase (IDO1). Compounds with IDO1 inhibitory properties decreased the amount of kynurenine produced by the cells via the tryptophan catabolic pathway. Cellular toxicity due to the effect of compound treatment was measured using CellTiter-Glo® reagent (CTG) (Promega Corporation, Madison, Wis.), which is based on luminescent detection of ATP, an indicator of metabolically active cells.
(§2) In preparation for the assays, test compounds were serially diluted 3-fold in DMSO from a typical top concentration of 1 mM or 5 mM and plated at 0.5 μL in 384-well, polystyrene, clear bottom, tissue culture treated plates with lids (Greiner Bio-One, Kremsmünster, Austria) to generate 11-point dose response curves. Low control wells (0% kynurenine or 100% cytotoxicity) contained either 0.5 μL of DMSO in the presence of unstimulated (−IFN-γ/−LPS) PBMCs for the mass spectrometry assay or 0.5 μL of DMSO in the absence of cells for the cytotoxicity assay, and high control wells (100% kynurenine or 0% cytotoxicity) contained 0.5 μL of DMSO in the presence of stimulated (+IFN-γ/+LPS) PBMCs for both the mass spectrometry and cytotoxicity assays.
(§3) Frozen stocks of PBMCs were washed and recovered in RPMI 1640 medium (Thermo Fisher Scientific, Inc., Waltham, Mass.) supplemented with 10% v/v heat-inactivated fetal bovine serum (FBS) (Thermo Fisher Scientific, Inc., Waltham, Mass.), and 1× penicillin-streptomycin antibiotic solution (Thermo Fisher Scientific, Inc., Waltham, Mass.). The cells were diluted to 1,000,000 cells/mL in the supplemented RPMI 1640 medium. 50 μL of either the cell suspension, for the mass spectrometry assay, or medium alone, for the cytotoxicity assay, were added to the low control wells, on the previously prepared 384-well compound plates, resulting in 50,000 cells/well or 0 cells/well respectively. IFN-γ and LPS were added to the remaining cell suspension at final concentrations of 100 ng/ml and 50 ng/ml respectively, and 50 μL of the stimulated cells were added to all remaining wells on the 384-well compound plates. The plates, with lids, were then placed in a 37° C., 5% CO2 humidified incubator for 2 days.
(§4) Following incubation, the 384-well plates were removed from the incubator and allowed to equilibrate to room temperature for 30 minutes. For the cytotoxicity assay, CellTiter-Glo® was prepared according to the manufacturer's instructions, and 40 μL were added to each plate well. After a twenty minute incubation at room temperature, luminescence was read on an EnVision® Multilabel Reader (PerkinElmer Inc., Waltham, Mass.). For the mass spectrometry assay, 10 μL of supernatant from each well of the compound-treated plates were added to 40 μL of acetonitrile, containing 10 μM of an internal standard for normalization, in 384-well, polypropylene, V-bottom plates (Greiner Bio-One, Kremsmünster, Austria) to extract the organic analytes. Following centrifugation at 2000 rpm for 10 minutes, 10 μL from each well of the acetonitrile extraction plates were added to 90 μL of sterile, distilled H2O in 384-well, polypropylene, V-bottom plates for analysis of kynurenine and the internal standard on the RapidFire 300 (Agilent Technologies, Santa Clara, Calif.) and 4000 QTRAP MS (SCIEX, Framingham, Mass.). MS data were integrated using Agilent Technologies' RapidFire Integrator software, and data were normalized for analysis as a ratio of kynurenine to the internal standard. […]

[2] = molecular target: indoleamine 2, 3-dioxygenase (IDO1) (Homo sapiens, UniProt P14902); experiment: IDO1 PBMC RapidFire MS assay (kynurenine detection by mass spectrometry); format: cell-based; parameters: to induce the expression of indoleamine 2, 3-dioxygenase (IDO1); host or cells: human PBMC stimulated with IFN-gamma and LPS; conditions: human PBMC stimulated with IFN-γ and LPS, 2 days, pIC50, read-out: PBMC PXC50 (converted)
Sequence of indoleamine 2, 3-dioxygenase (IDO1) (P14902 whole entry): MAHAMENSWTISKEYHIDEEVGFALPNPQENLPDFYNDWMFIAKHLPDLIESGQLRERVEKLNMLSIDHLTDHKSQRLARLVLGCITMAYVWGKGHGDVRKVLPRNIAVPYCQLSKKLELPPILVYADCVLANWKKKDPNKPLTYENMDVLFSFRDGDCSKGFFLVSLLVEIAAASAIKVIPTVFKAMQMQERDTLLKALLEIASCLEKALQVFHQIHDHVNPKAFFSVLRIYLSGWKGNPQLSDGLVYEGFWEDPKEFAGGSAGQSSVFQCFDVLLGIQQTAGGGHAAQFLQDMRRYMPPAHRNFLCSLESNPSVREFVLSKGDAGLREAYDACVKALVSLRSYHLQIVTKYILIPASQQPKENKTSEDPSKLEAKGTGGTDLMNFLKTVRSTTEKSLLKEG
Description: IDO1 PBMC RapidFire MS Assay
as §1, §2, §3, §4

| SMILES | IC50 [2] | PBMC TOX PXC50 [1] |
| --- | --- | --- |
| COCc1ccc(Nc2cc([C@H](C)CC(=O)O)ccc2N(CC(C)C)[C@H]2CC[C@H](OC)CC2)nc1 (racemic) [example 247, (3RS)-3-(3-{[5-(methoxymethyl)pyridin-2-yl]amino}-4-[(2-methylpropyl)[(1rs&,4rs&)-4-methoxycyclohexyl]ami-no]phenyl)butanoic acid] | 31.6 nM | <5 |
| CC(C)CN(CC(C)C)c1ccc(C(C)(C)CC(=O)O)cc1Nc1nc(C(F)(F)F)ns1 [Example 3, 3-(4-(diisobutylamino)-3-((3-(trifluoromethyl)-1,2,4-thiadiazol-5-yl)amino)phenyl)-3-methylbutanoic Acid] | 1.58 nM | <5 |
| CC(C)CN(c1ccc([C@H](C)CC(=O)O)cc1Nc1ccc(C(F)(F)F)nc1)C1CCOCC1 [Example 7, (R)-3-(4-(isobutyl(tetrahydro-2H-pyran-4-yl)amino)-3-((6-(trifluoromethyl)pyridin-3-yl)amino)phenyl)butanoic Acid] | 0.631 nM | <5 |
| CC(C)CN(c1ccc([C@H](C)CC(=O)O)cc1Nc1ccc(Cl)cn1)C1CCOCC1 [Example 8, (R)-3-(3-((5-chloropyridin-2-yl)amino)-4-(isobutyl(tetrahydro-2H-pyran-4-yl)amino)phenyl)butanoic Acid] | 0.794 nM | <5 |
| CC(C)CN(c1ccc([C@H](C)CC(=O)O)cc1Nc1cnc(Cl)nc1)C1CCOCC1 [Example 10, (R)-3-(3-((2-chloropyrimidin-5-yl)amino)-4-(isobutyl(tetrahydro-2H-pyran-4-yl)amino)phenyl)butanoic Acid] | 0.794 nM | <5 |
| CC(C)CN(c1ccc([C@H](C)CC(=O)O)cc1Nc1cnc(Cl)cn1)C1CCOCC1 [Example 12, (R)-3-(3-((5-chloropyrazin-2-yl)amino)-4-(isobutyl(tetrahydro-2H-pyran-4-yl)amino)phenyl)butanoic Acid] | 1 nM | <5 |
| CC(C)CN(c1ccc([C@H](C)CC(=O)O)cc1Nc1ccc(C#N)nc1)C1CCOCC1 [Example 13, (R)-3-(3-((6-cyanopyridin-3-yl)amino)-4-(isobutyl(tetrahydro-2H-pyran-4-yl)amino)phenyl)butanoic Acid] | 1.26 nM | <5 |
| CC(C)CN(c1ccc([C@H](C)CC(=O)O)cc1Nc1ccc(Cl)c(F)n1)C1CCOCC1 [Example 14, (R)-3-(3-((5-chloro-6-fluoropyridin-2-yl)amino)-4-(isobutyl(tetrahydro-2H-pyran-4-yl)amino)phenyl)butanoic acid] | 1.26 nM | <5 |
| CC(C)CN(c1ccc([C@H](C)CC(=O)O)cc1Nc1ccc(C#N)nn1)C1CCOCC1 [Example 24, (R)-3-(3-((6-cyanopyridazin-3-yl)amino)-4-(isobutyl(tetrahydro-2H-pyran-4-yl)amino)phenyl)butanoic Acid] | 2.51 nM | <5 |
| CC(C)CN(c1ccc([C@H](C)CC(=O)O)cc1Nc1nc(Cl)ns1)C1CCOCC1 [Example 25, (R)-3-(3-((3-chloro-1,2,4-thiadiazol-5-yl)amino)-4-(isobutyl(tetrahydro-2H-pyran-4-yl)amino)phenyl)butanoic Acid] | 3.16 nM | <5 |
| CC(C)CN(c1ccc([C@H](C)CC(=O)O)cc1Nc1nc(C(C)C)ns1)C1CCOCC1 [Example 26, (R)-3-(4-(isobutyl(tetrahydro-2H-pyran-4-yl)amino)-3-((3-isopropyl-1,2,4-thiadiazol-5-yl)amino)phenyl)butanoic Acid] | 3.16 nM | <5 |

Continued, in another order:

| IC50 [2] | SMILES | PBMC TOX PXC50 [1] |
| --- | --- | --- |
| 100 nM | CC(C)CN(c1ccc([C@H](C)CC(=O)O)cc1Nc1n[nH]c(C(F)(F)F)n1)[C@H]1CC[C@H](O)CC1 (racemic) [example 219, (3RS)-3-{4-[(2-methylpropyl)[(1rs&,4rs&)-4-hydroxycyclohexyl]amino]-3-{[5-(trifluoromethyl)-1H-1,2,4-triazol-3-yl]amino}phenyl}butanoic acid] | <5 |
| 39.8 nM | CO[C@H]1CC[C@H](N(CC(C)C)c2ccc([C@H](C)CC(=O)O)cc2Nc2n[nH]c(C3CC3)n2)CC1 (racemic) [example 221, (3RS)-3-{3-[(5-cyclopropyl-1H-1,2,4-triazol-3-yl)amino]-4-[(2-methylpropyl)[(1rs&,4rs&)-4-methoxycyclohexyl]ami-no]phenyl}butanoic acid] | <5 |
| 200 nM | CO[C@H]1CC[C@H](N(CC(C)C)c2ccc([C@H](C)CC(=O)O)cc2Nc2n[nH]c(C#N)n2)CC1 (racemic) [example 222, (3RS)-3-{3-[(5-cyano-1H-1,2,4-triazol-3-yl)amino]-4-[(2-methylpropyl)[(1rs&,4rs&)-4-methoxycyclohexyl]ami-no]phenyl}butanoic acid] | <5 |
| 501 nM | CO[C@H]1CC[C@H](N(CC(C)C)c2ccc([C@H](C)CC(=O)O)cc2Nc2n[nH]c(C(N)=O)n2)CC1 (racemic) [example 223, (3RS)-3-{3-[(5-carbamoyl-1H-1,2,4-triazol-3-yl)amino]-4-[(2-methylpropyl)[(1rs&,4rs&)-4-methoxycyclohexyl]ami-no]phenyl}butanoic acid] | <5 |
| 1580 nM | CC(C)CN(c1ccc([C@H](C)CC(=O)O)cc1Nc1n[nH]c(C#N)n1)[C@H]1CC[C@H](O)CC1 (racemic) [example 224, (3RS)-3-{3-[(5-cyano-1H-1,2,4-triazol-3-yl)amino]-4-[(2-methylpropyl)[(1rs&,4rs&)-4-hydroxycyclohexyl]amino]phenyl}butanoic acid] | <5 |
| 7940 nM | CC(C)CN(c1ccc([C@H](C)CC(=O)O)cc1Nc1n[nH]c(C(N)=O)n1)[C@H]1CC[C@H](O)CC1 (racemic) [example 225, (3RS)-3-{3-[(5-carbamoyl-1H-1,2,4-triazol-3-yl)amino]-4-[(2-methylpropyl)[(1rs&,4rs&)-4-hydroxycyclohexyl]amino]phenyl}butanoic acid] | <5 |
| 31.6 nM | COCc1nc(Nc2cc([C@H](C)CC(=O)O)ccc2N(CC(C)C)[C@H]2CC[C@@H](OC)CC2)n[nH]1 (racemic) [example 243, (3RS)-3-(3-{[5-(methoxymethyl)-1H-1,2,4-triazol-3-yl]amino}-4-[(2-methylpropyl)[(1rs&,4rs&)-4-methoxycyclohexyl]ami-no]phenyl)butanoic acid] | <5 |
| 25.1 nM | CNC(=O)c1nc(Nc2cc([C@H](C)CC(=O)O)ccc2N(CC(C)C)[C@H]2CC[C@@H](OC)CC2)n[nH]1 (racemic) [example 246, (3RS)-3-(3-{[5-(methylcarbamoyl)-1H-1,2,4-triazol-3-yl]amino}-4-[(2-methylpropyl)[(1rs&,4rs&)-4-methoxycyclohexyl]ami-no]phenyl)butanoic acid] | <5 |
| 2 nM | CC(C)CN(c1ccc([C@H](C)CC(=O)O)cc1Nc1ccc(C(F)(F)F)nn1)C1CCOCC1 [Example 18, (R)-3-(4-(isobutyl(tetrahydro-2H-pyran-4-yl)amino)-3-((6-(trifluoromethyl)pyridazin-3-yl)amino)phenyl)butanoic Acid] | <5 |

Source: US10899754B2, “Modulators of indoleamine 2,3-dioxygenase” (GLAXOSMITHKLINE INTELLECTUAL PROPERTY DEVELOPMENT LIMITED, priority 2016, dated 2021)
